From patent US20260102359A1, “COMBINATION TREATMENT OF DERMAL AND TRANSDERMAL FIBROTIC DISEASES, DISORDERS AND ASSOCIATED PAIN AND INFLAMMATION” (ERESINA, LLC, priority 2022, published 2026) come the findings set out here.

Counter-ions that a name gives are not always drawn.

In the series the test system is hDMFa myofibroblast cells.

`CC1CC(OC(=O)C(O)c2ccccc2)CC(C)(C)C1` (stereo not drawn) [Cmpd 301, Cyclandelate]: the “Compound Myofibroblast Cytotoxicity Activity” value is “+++”. As for `Nc1cc[nH]c(=O)n1` [Cmpd 304, Cytosine], the “Compound Myofibroblast Cytotoxicity Activity” value was “++”.

Take `O=C(CO)[C@@H](O)[C@H](O)[C@H](O)CO` [Cmpd 305, D-(−)-Fructose]: the “Compound Myofibroblast Cytotoxicity Activity” value is “++”. With `OC[C@H]1O[C@H](OC[C@H]2O[C@H](O[C@]3(CO)O[C@H](CO)[C@@H](O)[C@@H]3O)[C@H](O)[C@@H](O)[C@@H]2O)[C@H](O)[C@@H](O)[C@H]1O` [Cmpd 308, D-(+)-Raffinose (hydrate)] the entry was “++”; with `CC(C)(C)c1nc(-c2cccc(NS(=O)(=O)c3c(F)cccc3F)c2F)c(-c2ccnc(N)n2)s1.CS(=O)(=O)O` [Cmpd 311, Dabrafenib Mesylate (GSK-2118436)], “++”; with `COc1cc2ncnc(Nc3ccc(F)c(Cl)c3)c2cc1NC(=O)/C=C/CN1CCCCC1` [Cmpd 313, Dacomitinib (PF299804, PF299)], “+++”. Turning to `O=C1CN(/N=C/c2ccc(-c3ccc([N+](=O)[O-])cc3)o2)C(O)=N1` [Cmpd 320, Dantrolene, sodium salt], the “Compound Myofibroblast Cytotoxicity Activity” value is given as “++++”. The value for `CCOc1ccc(Cc2cc([C@@H]3O[C@H](CO)[C@@H](O)[C@H](O)[C@H]3O)ccc2Cl)cc1.C[C@H](O)CO.O` [Cmpd 321, Dapagliflozin ((2S)-1,2-propanediol,hydrate)] was “++”; that for `CN(C)[C@@H](CCOc1cccc2ccccc12)c1ccccc1` [Cmpd 322, Dapoxetine HCl] was “++”. Take `Cc1nc(Nc2ncc(C(=O)Nc3c(C)cccc3Cl)s2)cc(N2CCN(CCO)CC2)n1` [Cmpd 326, Dasatinib (BMS-354825)]: the “Compound Myofibroblast Cytotoxicity Activity” value is on record as “+++”. With `Cc1nc(Nc2ncc(C(=O)Nc3c(C)cccc3Cl)s2)cc(N2CCN(CCO)CC2)n1` [Cmpd 327, Dasatinib hydrochloride] the entry was “+++”; with `Cc1nc(Nc2ncc(C(=O)Nc3c(C)cccc3Cl)s2)cc(N2CCN(CCO)CC2)n1.O` [Cmpd 328, Dasatinib Monohydrate], “+++”.

As to `COc1cccc2c1C(=O)c1c(O)c3c(c(O)c1C2=O)C[C@@](O)(C(C)=O)C[C@@H]3O[C@H]1C[C@H](N)[C@H](O)[C@H](C)O1` [Cmpd 329, Daunorubicin HCl], the “Compound Myofibroblast Cytotoxicity Activity” value is “+++”.

On to `CCCCCCCCCC(=O)O` [Cmpd 331, Decanoic acid], for which the “Compound Myofibroblast Cytotoxicity Activity” value is “+”.

Regarding `C=C1CC[C@@H]2[C@](C)(CO)[C@H](O)CC[C@@]2(C)[C@@H]1/C=C/C1=CCOC1=O` [Cmpd 334, Dehydroandrographolide], the “Compound Myofibroblast Cytotoxicity Activity” value is listed as “++”. The value for `C=C1CC[C@H]2C(=C)CC[C@H]3C(=C)C(=O)O[C@@H]3[C@@H]12` [Cmpd 336, Dehydrocostus Lactone] was “+++++”.

Turning to `O=C1O[C@H](CO)[C@@H](O)[C@H](O)[C@H]1O` [Cmpd 338, delta-Gluconolactone], the “Compound Myofibroblast Cytotoxicity Activity” value is recorded as “++”. With `C[C@H](CCC(=O)O)[C@H]1CC[C@H]2[C@@H]3CC[C@@H]4C[C@H](O)CC[C@]4(C)[C@H]3C[C@H](O)[C@]12C` [Cmpd 339, Deoxycholic acid sodium salt] the entry was “+++++”. The value for `Cc1cc(N)c2ccccc2[n+]1CCCCCCCCCC[n+]1c(C)cc(N)c2ccccc21` [Cmpd 340, Dequalinium Chloride] was “++”; that for `CCCCCCCCCCCCC/C=C/[C@@H](O)[C@@H](N)CO` [Cmpd 341, D-erythro-Sphingosine (synthetic)] was “++”; that for `CNCCCN1c2ccccc2CCc2ccccc21.Cl` [Cmpd 342, Desipramine hydrochloride] was “++++”. The value for `C#C[C@]1(O)CC[C@H]2[C@@H]3CCC4=CCCC[C@@H]4[C@H]3C(=C)C[C@@]21CC` [Cmpd 344, Desogestrel] was “+++”; that for `Cc1c(OCC(F)(F)F)ccnc1C[S@@+]([O-])c1nc2ccccc2[nH]1` [Cmpd 345, Dexlansoprazole] was “++”.

Turning to `NC(=O)CC[C@@H](N)C(=O)O` [Cmpd 346, D-Glutamine], the “Compound Myofibroblast Cytotoxicity Activity” value was “++”. With `CC(=O)Nc1c(I)c(NC(C)=O)c(I)c(C(=O)O)c1I` [Cmpd 348, Diatrizoic acid] the entry was “++”; with `COc1ccc(Cc2cnc(N)nc2N)cc1OC` [Cmpd 349, Diaveridine], “++”. The value for `Oc1ccc(Cl)cc1Cc1cc(Cl)ccc1O` [Cmpd 353, Dichlorophen] was “+++++”; that for `N#CC(c1ccc(Cl)cc1)c1c(Cl)cc(-n2ncc(=O)[nH]c2=O)cc1Cl` (stereo not drawn) [Cmpd 354, Diclazuril] was “+++”; that for `O=C(O)Cc1ccccc1Nc1c(Cl)cccc1Cl` [Cmpd 355, Diclofenac] was “++”. As for `CC/C(=C(/CC)c1ccc(O)cc1)c1ccc(O)cc1` [Cmpd 358, Diethylstilbestrol], the “Compound Myofibroblast Cytotoxicity Activity” value was “+++”. The value for `O=C(O)c1cc(-c2ccc(F)cc2F)ccc1O` [Cmpd 359, Diflunisal] was “++”.

`OC(CCCN1CCCCC1)(c1ccccc1)c1ccccc1` [Cmpd 365, Diphenidol HCl]: the “Compound Myofibroblast Cytotoxicity Activity” value was “++++”. The value for `CC(C)N(CCC(C(N)=O)(c1ccccc1)c1ccccn1)C(C)C` (stereo not drawn) [Cmpd 366, Disopyramide] was “++”; that for `CC/C=C\C/C=C\C/C=C\C/C=C\C/C=C\C/C=C\CCC(=O)O` [Cmpd 375, Docosahexaenoic Acid] was “+++”. With `O=C(O[C@@H]1C[C@@H]2C[C@H]3C[C@H](C1)N2CC3=O)c1c[nH]c2ccccc12` [Cmpd 376, Dolasetron] the entry was “++”; with `O=c1[nH]c2ccccc2n1CCCN1CCC(n2c(=O)[nH]c3cc(Cl)ccc32)CC1` [Cmpd 378, Domperidone], “++”.

On to `CC(O)C(=O)O.CC(O)C(=O)O.CN1CCN(c2ccc3nc(-c4c(N)c5c(F)cccc5[nH]c4=O)[nH]c3c2)CC1` [Cmpd 383, Dovitinib Dilactic acid], for which the “Compound Myofibroblast Cytotoxicity Activity” value is given as “+++”. For `COc1cc2nc(N3CCN(C(=O)C4COc5ccccc5O4)CC3)nc(N)c2cc1OC` (stereo not drawn) [Cmpd 384, Doxazosin Mesylate], the “Compound Myofibroblast Cytotoxicity Activity” value is “+++”. With `CN(C)CCC=C1c2ccccc2COc2ccccc21` [Cmpd 385, Doxepin (hydrochloride)] the entry was “++”; with `C=C1/C(=C\C=C2/CCC[C@]3(C)[C@@H]([C@H](C)/C=C/[C@H](C)C(C)C)CC[C@@H]23)C[C@@H](O)C[C@@H]1O` [Cmpd 386, Doxercalciferol], “+++”; with `C[C@H]1O[C@@H](n2cc(F)c(=O)[nH]c2=O)[C@H](O)[C@@H]1O` [Cmpd 387, Doxifluridine], “++++”. The value for `C[C@H]1c2cccc(O)c2C(=O)C2=C(O)[C@]3(O)C(=O)C(C(N)=O)=C(O)[C@@H](N(C)C)[C@@H]3[C@@H](O)[C@@H]21` [Cmpd 388, Doxycycline HCl] was “++”; that for `CC(C)(CO)[C@H](O)C(=O)NCCCO` [Cmpd 390, D-Panthenol] was “++”. With `CC(C)(CO)[C@@H](O)C(=O)NCCC(=O)[O-].[Na+]` [Cmpd 391, D-Pantothenate sodium] the entry was “++”; with `CNCC[C@H](Oc1cccc2ccccc12)c1cccs1` [Cmpd 397, Duloxetine HCl], “+++++”; with `CCCCOc1ccc(C(=O)CCN2CCCCC2)cc1` [Cmpd 398, Dyclonine HCl], “+++”. As for `Clc1ccc(COC(Cn2ccnc2)c2ccc(Cl)cc2Cl)cc1` (stereo not drawn) [Cmpd 403, Econazole nitrate], the “Compound Myofibroblast Cytotoxicity Activity” value is “+++”. With `O=C([O-])CN(CCN(CC(=O)[O-])CC(=O)[O-])CC(=O)[O-].[Ca+2].[Na+].[Na+]` [Cmpd 404, edetate calcium disodium] the entry was “++”.

Consider `CC[N+](C)(C)c1cccc(O)c1.[Cl-]` [Cmpd 406, Edrophonium (chloride)], for which the “Compound Myofibroblast Cytotoxicity Activity” value is recorded as “+++”. The value for `CC/C=C\C/C=C\C/C=C\C/C=C\C/C=C\CCCC(=O)O` [Cmpd 408, Eicosapentaenoic Acid] was “+++”; that for `CC1=NN(c2ccc(C)c(C)c2)C(=O)/C1=N\Nc1cccc(-c2cccc(C(=O)O)c2)c1O` [Cmpd 410, Eltrombopag] was “++”.

For `CN1CCC(COc2cnc(-c3cccc(Cn4nc(-c5cccc(C#N)c5)ccc4=O)c3)nc2)CC1` [Cmpd 413, EMD-1214063], the “Compound Myofibroblast Cytotoxicity Activity” value is listed as “++++”. With `Cc1cc(O)c2c(c1)C(=O)c1cc(O)cc(O)c1C2=O` [Cmpd 415, Emodin (6-Methyl-1,3,8-trihydroxyanthraquinone)] the entry was “++”; with `CCn1cc(C(=O)O)c(=O)c2cc(F)c(N3CCNCC3)nc21` [Cmpd 416, Enoxacin Sesquihydrate], “++”.

In the case of `C=C1[C@H](CO)[C@@H](O)C[C@@H]1n1cnc2c(=O)[nH]c(N)nc21` [Cmpd 418, Entecavir Hydrate], the “Compound Myofibroblast Cytotoxicity Activity” value is “+++”. With `CN1CCN(c2ccc(C(=O)Nc3n[nH]c4ccc(Cc5cc(F)cc(F)c5)cc34)c(NC3CCOCC3)c2)CC1` [Cmpd 419, Entrectinib] the entry was “+++”; with `Cn1cc(C2=C(c3cn(C4CCN(Cc5ccccn5)CC4)c4ccccc34)C(=O)NC2=O)c2ccccc21` [Cmpd 420, Enzastaurin (LY317615)], “++++”.
